Where “and” joins values, the source holds several entries; their conditions need not be identical. Equal entries are not always repeated.

Test system in the first data set: not given
Test: not given
Details: not given
As for `CCOC(=O)Nc1cc(-c2ccc(OC)cc2)nn(CC=Cc2ccc(Cl)cc2)c1=O` [Example 87, 2-(4-Chlorocinnamyl)-4-ethoxycarbonylamino-6-(4-methoxyphenyl)-2H-pyridazin-3-one], the melting point fell in the range of 171.2 to 172.1 °C. Still for that read-out and setting: next, `CNC(=O)c1cc(-c2ccc(OC)cc2)nn(CC(C)C)c1=O` [Example 43, 2-Isobutyl-6-(4-methoxyphenyl)-4-methylcarbamoyl-2H-pyridazin-3-one]: 124.9 to 125.2 °C; `CNc1cc(-c2ccc(OC)cc2)nn(CC=Cc2ccc(Cl)cc2)c1=O` [Example 117, 2-(4-chlorocinnamyl)-6-(4-methoxyphenyl)-4-methylamino-2H-pyridazin-3-one]: 148.4 to 149.2 °C; `CNC(=O)c1cc(-c2ccc(OC)cc2)nn(C(C)C)c1=O` [Example 52, 2-Isopropyl-6-(4-methoxyphenyl)-4-methylcarbamoyl-2H-pyridazin-3-one]: 154 to 154.3 °C.

With `COC(=O)c1cc(-c2ccc(OC)c(OC)c2)nn(CC2CC2)c1=O` [Example 17, 2-Cyclopropylmethyl-6-(3,4-dimethoxyphenyl)-4-methoxycarbonyl-2H-pyridazin-3-one], the melting point lay within 136.5 to 137.3 °C. The same measure, in the same setting: next, `COc1ccc(-c2cc(C(=O)O)c(=O)n(CC=Cc3ccc(Cl)cc3)n2)cc1Cl` [Example 105, 4-carboxy-2-(4-chlorocinnamyl)-6-(3-chloro-4-methoxyphenyl)-2H-pyridazin-3-one]: 183 to 183.8 °C; `CCCNC(=O)c1cc(-c2ccc(OC)cc2)nn(CC2CC2)c1=O` [Example 67, 2-Cyclopropylmethyl-6-(4-methoxyphenyl)-4-n-propylcarbamoyl-2H-pyridazin-3-one]: 101.3 to 101.6 °C; `COc1ccc(-c2cc(NS(C)(=O)=O)c(=O)n(CC3CC3)n2)cc1` [Example 126, 2-cyclopropylmethyl-4-methanesulfonylamino-6-(4-methoxyphenyl)-2H-pyridazin-3-one]: 203.3 to 203.9 °C. Still for that read-out and setting: next, `COc1ccc(-c2cc(C(=O)NCc3ccccn3)c(=O)n(CC3CCCC3)n2)cc1` [Example 76, 2-Cyclopentylmethyl-6-(4-methoxyphenyl)-4-(2-pyridylmethyl)carbamoyl-2H-pyridazin-3-one]: 126.6 to 127.5 °C.

As to `COC(=O)c1cc(-c2ccc(SC)cc2)nn(CC=Cc2ccc(Cl)cc2)c1=O` [Example 35, 2-(4-Chlorocinnamyl)-4-methoxycarbonyl-6-[4-(methylthio)phenyl]-2H-pyridazin-3-one], the melting point fell in the range of 123.3 to 126.2 °C. `COc1ccc(-c2cc(C(=O)NCc3ccccn3)c(=O)n(CC3CC3)n2)cc1` [Example 69, 2-Cyclopropylmethyl-6-(4-methoxyphenyl)-4-(2-pyridylmethyl)carbamoyl-2H-pyridazin-3-one] displayed a melting point of 98.6 to 99.3 °C.

Take `COc1ccc(-c2cc(N)c(=O)n(CC=Cc3ccc(Cl)cc3)n2)cc1` [Example 111, 4-amino-2-(4-chlorocinnamyl)-6-(4-methoxyphenyl)-2H-pyridazin-3-one]: the melting point is 142.7 to 143.2 °C. For `CNC(=O)c1cc(-c2ccc(OC)cc2)nn(CC2CC2)c1=O` [Example 61, 2-Cyclopropylmethyl-6-(4-methoxyphenyl)-4-methylcarbamoyl-2H-pyridazin-3-one], the melting point lay in the range of 136.6 to 137.5 °C.

On to `COC(=O)c1cc(-c2ccc(SC)cc2)nn(CC2CC2)c1=O` [Example 20, 2-Cyclopropylmethyl-4-methoxycarbonyl-6-[4-(methylthio)phenyl]-2H-pyridazin-3-one], for which the melting point lay within 100.2 to 101.8 °C. As for `CCOC(=O)c1cc(-c2ccc(OC)cc2)nn(CC=Cc2ccc(Cl)cc2)c1=O` [Example 31, 2-(4-Chlorocinnamyl)-4-ethoxycarbonyl-6-(4-methoxyphenyl)-2H-pyridazin-3-one], the melting point is 127 to 127.9 °C. Still for that read-out and setting: next, `CNC(=O)c1cc(-c2ccc(OC)cc2)nn(CC#N)c1=O` [Example 46, 2-Cyanomethyl-6-(4-methoxyphenyl)-4-methylcarbamoyl-2H-pyridazin-3-one]: 153.4 to 154.9 °C; `COc1ccc(-c2cc(NC(=O)OC(C)C)c(=O)n(CC=Cc3ccc(Cl)cc3)n2)cc1` [Example 88, 2-(4-chlorocinnamyl)-6-(4-methoxyphenyl)-4-isopropoxycarbonylamino-2H-pyridazin-3-one]: 123.9 to 127.4 °C; `COc1ccc(-c2cc(C(=O)NCc3ccccc3)c(=O)n(C)n2)cc1` [Example 77, 4-Benzylcarbamoyl-6-(4-methoxyphenyl)-2-methyl-2H-pyridazin-3-one]: 144.8 to 145.8 °C.

`COC(=O)c1cc(-c2ccc(OC)c(F)c2)nn(CC(C)C)c1=O` [Example 12, 6-(3-Fluoro-4-methoxyphenyl)-2-isobutyl-4-methoxycarbonyl-2H-pyridaz in-3-one] returned a melting point of 153.3 to 154.9 °C. In turn, `CNC(=S)c1cc(-c2ccc(OC)c(F)c2)nn(CC2CC2)c1=O` [Example 129, 2-cyclopropylmethyl-6-(3-fluoro-4-methoxyphenyl)-4-methylthiocarbamoyl-2H-pyridazin-3-one] yielded a melting point of 178 to 178.5 °C. Consider `CNC(=O)c1cc(-c2ccc(OC)cc2)nn(CC(=O)NCCO)c1=O` [Example 59, 2-(2-Hydroxyethyl)carbamoylmethyl-6-(4-methoxyphenyl)-4-methylcarbamoyl-2H-pyridazin-3-one], for which the melting point was 240.2 to 241.2 °C. For the compound `COc1ccc(-c2cc(NC(=O)OCc3ccccc3)c(=O)n(CC=Cc3ccc(Cl)cc3)n2)cc1` [Example 90, 4-benzyloxycarbonylamino-2-(4-chlorocinnamyl)-6-(4-methoxyphenyl)-2H-pyridazin-3-one], the melting point lay in the range of 190.5 to 191.7 °C. The same measure, in the same setting: next, `COc1ccc(-c2cc(C(=O)NCc3ccccc3)c(=O)n(CC3CCCC3)n2)cc1` [Example 75, 4-Benzylcarbamoyl-2-cyclopentylmethyl-6-(4-methoxyphenyl)-2H-pyridazin-3-one]: 107.6 to 108.1 °C; `COc1ccc(-c2cc(NC(=O)NC(C)C)c(=O)n(Cc3ccccc3)n2)cc1` [Example 123, 2-benzyl-4-(3-isopropylureido)-6-(4-methoxyphenyl)-2H-pyridazin-3-one]: 200.2 to 201 °C; `CCC(=O)Nc1cc(-c2ccc(OC)cc2)nn(CC=Cc2ccc(Cl)cc2)c1=O` [Example 114, 2-(4-chlorocinnamyl)-6-(4-methoxy-phenyl)-4-propionylamino-2H-pyridazin-3-one]: 147.7 to 148.6 °C. The same measure, in the same setting: in the case of `COC(=O)c1cc(-c2ccc(OC)c(F)c2)nn(CC=Cc2ccc(Cl)cc2)c1=O` [Example 33, 2-(4-Chlorocinnamyl)-6-(3-fluoro-4-methoxyphenyl)-4-methoxycarbonyl-2H-pyridazin-3-one] it was 131.3 to 132.3 °C; in that of `CCOC(=O)Nc1cc(-c2ccc(OC)cc2)nn(Cc2ccccc2)c1=O` [Example 97, 2-benzyl-4-ethoxycarbonylamino-6-(4-methoxyphenyl)-2H-pyridazin-3-one], 152.1 to 162.5 °C; in that of `CCCn1nc(-c2ccc(OC)cc2)cc(C(=O)OC)c1=O` [Example 4, 4-Methoxycarbonyl-6-(4-methoxyphenyl)-2-n-propyl-2H-pyridazin-3-one], 106.5 to 107.1 °C and 104.8 to 105.8 °C.

Take `CCOC(=O)c1cc(-c2ccc(OC)cc2)nn(C(C)C)c1=O` [Example 9, 4-Ethoxycarbonyl-2-isopropyl-6-(4-methoxyphenyl)-2H-pyridazin-3-one]: the melting point is 140.6 to 141.1 °C. The compound `CNC(=O)c1cc(-c2ccc(OC)cc2)nn(CCO)c1=O` [Example 49, 2-(2-Hydroxyethyl)-6-(4-methoxyphenyl)-4-methylcarbamoyl-2H-pyridazin-3-one] displayed a melting point of 160.3 to 160.6 °C. `CNC(=O)c1cc(-c2ccc(OC)cc2)nn(CC=C(C)C)c1=O` [Example 57, 6-(4-Methoxyphenyl)-2-(3-methyl-2-butenyl)-4-methylcarbamoyl-2H-pyridazin-3-one]: the melting point was in the range of 103.6 to 104 °C. Still for that read-out and setting: next, `CNC(=O)c1cc(-c2ccc(OC)c(OC)c2)nn(CC(C)C)c1=O` [Example 53, 6-(3,4-Dimethoxyphenyl)-2-isobutyl-4-methylcarbamoyl-2H-pyridazin-3-one]: 111.4 to 112.6 °C.

The compound `CNC(=O)c1cc(-c2ccc(SC)cc2)nn(CC2CC2)c1=O` [Example 65, 2-Cyclopropylmethyl-4-methylcarbamoyl-6-[4-(methylthio)phenyl]-2H-pyridazin-3-one] came in with a melting point of 116.5 to 118 °C.

Another data set relates to Interleukin-1β (IL-1β) Production in HL-60 cells. In words: Inhibitory activity against interleukin-1β production (Test 1). It counts as cell-based. Particulars: Homo sapiens, 72 h, lipopolysaccharide 10 μg/ml, culturing for 3 days, compared with control without test sample. How it is done:
(Inhibitory activity against interleukin-1β production)
HL-60 cells were cultured for 4 days until confluence on RPMI 1640 medium with 10% fetal bovine serum (FBS) added thereto. The medium was centrifuged. The supernatant was discarded, and the cells were then suspended at 1×10^6 cells/me on RPMI 1640 medium with 3% FBS, and lipopolysaccharide was added to give a final concentration of 10 μg/ml. The culture was inoculated at 1 ml/well to a 24-well plate. A test compound was added at 1 μl/well, followed by culturing for 3 days. Three days later, the amount of interleukin-1β in each […] was determined by a comparison in yield with a control to which no test sample was added.
`COc1ccc(-c2cc(=O)[nH]nc2-c2ccc(OC)cc2)cc1` [Comp. Comp'd 4, reference compound] registered a half-maximal inhibitory concentration (IC50) of 31.6 µM. On the same count and under the same terms, in the case of `CCOC(=O)Nc1cc(-c2ccc(OC)cc2)nn(CC=Cc2ccc(Cl)cc2)c1=O` [Example 87, 2-(4-Chlorocinnamyl)-4-ethoxycarbonylamino-6-(4-methoxyphenyl)-2H-pyridazin-3-one] it was 0.05 µM.

Turning to `CNC(=O)c1cc(-c2ccc(OC)cc2)nn(CC(C)C)c1=O` [Example 43, 2-Isobutyl-6-(4-methoxyphenyl)-4-methylcarbamoyl-2H-pyridazin-3-one], the IC50 is 0.357 µM. On the same count and under the same terms, in the case of `COc1ccc(-c2cc(N)c(=O)n(CC=Cc3ccc(Cl)cc3)n2)cc1` [Example 111, 4-amino-2-(4-chlorocinnamyl)-6-(4-methoxyphenyl)-2H-pyridazin-3-one] it was 0.53 µM. On the same count and under the same terms, in the case of `CNC(=O)c1cc(-c2ccc(OC)cc2)nn(CC2CC2)c1=O` [Example 61, 2-Cyclopropylmethyl-6-(4-methoxyphenyl)-4-methylcarbamoyl-2H-pyridazin-3-one] it was 0.038 µM; in that of `CNC(=O)c1cc(-c2ccc(OC)c(F)c2)nn(CC2CC2)c1=O` [Example 63, 2-Cyclopropylmethyl-6-(3-fluoro-4-methoxyphenyl)-4-methylcarbamoyl-2H-pyridazin-3-one], 0.31 µM.

On to `COc1ccc(-c2cc(=O)n(CCO)nc2-c2ccc(OC)cc2)cc1` [Comp. Comp'd 2, reference compound], for which the midpoint of inhibition, the IC50, lay at 46 µM. `COc1ccc(-c2cc(=O)n(CCCl)nc2-c2ccc(OC)cc2)cc1` [Comp. Comp'd 1, reference compound] came in with a half-inhibitory concentration (IC50) of 29 µM.

These data come from patent publication US6403586B1, “Pyridazine derivatives and drugs containing the same as the active ingredient” (Kowa Co., Ltd., priority 1998, dated 2002).
